The source of these data is paper PMC5467235, “Variation in auxin sensing guides AUX/IAA transcriptional repressor ubiquitylation and destruction” (Nature Communications, 2017).

Positions count from the first letter of the chain named.

Assay [1] deals with T1, ASK1-TIR1-IAA19 co-receptor complex (TIR1-IAA19) (Arabidopsis thaliana, UniProt O24409+Q570C0, O24409:P76S).
T1 construct: ASK1-TIR1 from insect cells (Sf9 or Hi5), purified; IAA19 N-terminally GST-tagged from E. coli, full length; with SKP1-like protein 1A
T1 sequence (Q570C0 1-594): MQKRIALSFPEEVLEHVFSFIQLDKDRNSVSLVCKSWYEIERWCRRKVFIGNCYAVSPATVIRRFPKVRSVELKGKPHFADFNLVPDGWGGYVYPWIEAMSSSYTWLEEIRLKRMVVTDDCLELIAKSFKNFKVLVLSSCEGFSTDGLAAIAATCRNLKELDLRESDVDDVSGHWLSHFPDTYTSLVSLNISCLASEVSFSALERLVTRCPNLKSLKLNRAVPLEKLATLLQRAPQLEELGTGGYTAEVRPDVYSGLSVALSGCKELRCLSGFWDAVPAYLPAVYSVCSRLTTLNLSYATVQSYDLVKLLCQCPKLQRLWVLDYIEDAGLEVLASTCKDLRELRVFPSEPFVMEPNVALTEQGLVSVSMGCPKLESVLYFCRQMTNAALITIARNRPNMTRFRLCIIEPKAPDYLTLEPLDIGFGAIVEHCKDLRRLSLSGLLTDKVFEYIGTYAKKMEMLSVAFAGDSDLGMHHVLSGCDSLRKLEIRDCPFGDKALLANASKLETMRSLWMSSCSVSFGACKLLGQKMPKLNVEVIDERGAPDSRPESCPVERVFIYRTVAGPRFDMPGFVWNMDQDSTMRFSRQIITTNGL
T1 sequence (O24409 1-197 P76S): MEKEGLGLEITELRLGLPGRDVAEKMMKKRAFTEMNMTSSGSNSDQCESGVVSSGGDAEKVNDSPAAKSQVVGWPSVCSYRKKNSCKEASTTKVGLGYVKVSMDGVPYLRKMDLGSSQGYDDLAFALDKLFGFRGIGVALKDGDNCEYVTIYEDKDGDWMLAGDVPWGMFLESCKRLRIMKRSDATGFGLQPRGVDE
T1 sequence (Q39255 1-160 partner): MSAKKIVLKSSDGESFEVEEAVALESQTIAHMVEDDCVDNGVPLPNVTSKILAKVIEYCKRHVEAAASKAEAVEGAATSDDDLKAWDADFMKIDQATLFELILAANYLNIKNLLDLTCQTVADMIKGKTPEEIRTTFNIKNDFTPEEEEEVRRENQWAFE
The assay is described as follows: one-point [3H]IAA saturation binding. To be noted: labelled compound; 200 nM [3H]IAA; msg2-1 degron mutant.

Assay [2] concerns the target T2, AFB1-IAA6 (yeast two-hybrid) (Arabidopsis thaliana, UniProt Q38824+Q9ZR12).
T2 construct: gene GRH1; LexA DBD-AFB1 and AD-IAA6 fusions in yeast diploids
T2 sequence (Q9ZR12 1-585): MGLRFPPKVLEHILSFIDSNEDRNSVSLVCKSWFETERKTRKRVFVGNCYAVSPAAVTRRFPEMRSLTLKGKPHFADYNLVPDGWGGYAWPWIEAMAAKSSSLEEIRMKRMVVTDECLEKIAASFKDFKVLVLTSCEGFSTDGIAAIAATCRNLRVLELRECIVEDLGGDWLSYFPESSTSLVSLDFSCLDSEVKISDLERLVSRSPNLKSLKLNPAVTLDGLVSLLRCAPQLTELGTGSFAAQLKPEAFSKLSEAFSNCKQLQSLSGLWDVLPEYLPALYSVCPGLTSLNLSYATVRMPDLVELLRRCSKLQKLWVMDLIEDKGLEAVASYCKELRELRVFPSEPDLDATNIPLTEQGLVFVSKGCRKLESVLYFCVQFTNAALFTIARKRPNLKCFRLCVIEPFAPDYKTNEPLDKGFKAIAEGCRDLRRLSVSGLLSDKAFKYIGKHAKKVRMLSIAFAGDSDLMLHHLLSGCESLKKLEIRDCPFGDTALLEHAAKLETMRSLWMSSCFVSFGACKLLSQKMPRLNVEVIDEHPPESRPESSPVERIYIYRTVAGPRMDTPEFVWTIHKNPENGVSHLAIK
T2 sequence (Q38824 1-189): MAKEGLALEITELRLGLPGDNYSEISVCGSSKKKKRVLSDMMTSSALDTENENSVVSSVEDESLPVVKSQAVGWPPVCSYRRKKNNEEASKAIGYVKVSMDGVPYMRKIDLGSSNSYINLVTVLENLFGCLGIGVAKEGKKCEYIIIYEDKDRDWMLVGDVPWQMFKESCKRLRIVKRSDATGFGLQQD
The assay is described as follows: yeast two-hybrid, beta-galactosidase reporter. Type of assay: cell-based. To be noted: auxin-dependent association in yeast; low micromolar IAA.

The target of assay [3] is T3, AFB1-IAA19 (yeast two-hybrid) (Arabidopsis thaliana, UniProt O24409+Q9ZR12).
T3 construct: gene GRH1; LexA DBD-AFB1 and AD-IAA19 fusions in yeast diploids
T3 sequence (Q9ZR12 1-585): T2 sequence (Q9ZR12 1-585)
T3 sequence (O24409 1-197): T1 sequence (O24409 1-197 P76S) with S76P
The assay is described as follows: yeast two-hybrid, beta-galactosidase reporter. Type of assay: cell-based. The following applies: auxin-dependent association in yeast; low micromolar IAA.

The target in assay [4] is T4, ASK1-TIR1-IAA6 co-receptor complex (TIR1-IAA6) (Arabidopsis thaliana, UniProt Q38824+Q570C0).
T4 construct: ASK1-TIR1 from insect cells (Sf9 or Hi5), purified; IAA6 N-terminally GST-tagged from E. coli, full length; with SKP1-like protein 1A
T4 sequence (Q570C0 1-594): T1 sequence (Q570C0 1-594)
T4 sequence (Q38824 1-189): T2 sequence (Q38824 1-189)
T4 sequence (Q39255 1-160 partner): T1 sequence (Q39255 1-160 partner)
The assay is described as follows: homologous competition radioligand binding. To be noted: unlabelled IAA against 50 nM [3H]IAA.

The target of assay [5] is T5, ASK1-TIR1-IAA19 co-receptor complex (TIR1-IAA19) (Arabidopsis thaliana, UniProt O24409+Q570C0).
T5 construct: ASK1-TIR1 from insect cells (Sf9 or Hi5), purified; IAA19 N-terminally GST-tagged from E. coli, full length; with SKP1-like protein 1A
T5 sequence (Q570C0 1-594): T1 sequence (Q570C0 1-594)
T5 sequence (O24409 1-197): T1 sequence (O24409 1-197 P76S) with S76P
T5 sequence (Q39255 1-160 partner): T1 sequence (Q39255 1-160 partner)
The assay is described as follows: homologous competition radioligand binding.

Assay [6] deals with T6, AFB2-IAA6 (yeast two-hybrid) (Arabidopsis thaliana, UniProt Q38824+Q9LW29).
T6 construct: LexA DBD-AFB2 and AD-IAA6 fusions in yeast diploids
T6 sequence (Q9LW29 1-575): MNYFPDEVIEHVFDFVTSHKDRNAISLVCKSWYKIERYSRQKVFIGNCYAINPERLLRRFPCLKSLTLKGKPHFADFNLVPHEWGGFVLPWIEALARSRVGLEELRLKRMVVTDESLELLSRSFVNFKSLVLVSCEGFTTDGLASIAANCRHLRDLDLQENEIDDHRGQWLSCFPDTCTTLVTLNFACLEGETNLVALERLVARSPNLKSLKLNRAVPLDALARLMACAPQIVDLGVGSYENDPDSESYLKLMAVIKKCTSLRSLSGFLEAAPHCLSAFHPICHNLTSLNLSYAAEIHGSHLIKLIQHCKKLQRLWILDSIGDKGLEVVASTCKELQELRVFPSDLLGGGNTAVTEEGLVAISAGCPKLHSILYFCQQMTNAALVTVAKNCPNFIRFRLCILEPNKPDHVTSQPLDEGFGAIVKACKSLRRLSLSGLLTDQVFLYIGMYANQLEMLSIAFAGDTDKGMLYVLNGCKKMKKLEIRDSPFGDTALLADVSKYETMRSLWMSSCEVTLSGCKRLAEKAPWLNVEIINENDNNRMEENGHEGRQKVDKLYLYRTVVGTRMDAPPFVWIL
T6 sequence (Q38824 1-189): T2 sequence (Q38824 1-189)
The assay is described as follows: yeast two-hybrid, beta-galactosidase reporter. Type of assay: cell-based. To be noted: auxin-dependent association in yeast; low micromolar IAA.

The target of assay [7] is T4, ASK1-TIR1-IAA6 co-receptor complex (TIR1-IAA6). The assay is described as follows: homologous competition radioligand binding.
Assay [8] has the same target. The assay is described as follows: [3H]IAA saturation radioligand binding.
For assay [9], the target named is T7, ASK1-TIR1-IAA6 co-receptor complex (TIR1-IAA6) (Arabidopsis thaliana, UniProt Q38824+Q570C0, Q38824:C78R).
T7 construct: ASK1-TIR1 from insect cells (Sf9 or Hi5), purified; IAA6 N-terminally GST-tagged from E. coli, full length; with SKP1-like protein 1A
T7 sequence (Q570C0 1-594): T1 sequence (Q570C0 1-594)
T7 sequence (Q38824 1-189 C78R): T2 sequence (Q38824 1-189) with C78R
T7 sequence (Q39255 1-160 partner): T1 sequence (Q39255 1-160 partner)
The assay is described as follows: one-point [3H]IAA saturation binding. The following applies: labelled compound; 200 nM [3H]IAA; shy1-1 degron mutant.

Assay [10] has as its target T8, AFB2-IAA19 (yeast two-hybrid) (Arabidopsis thaliana, UniProt O24409+Q9LW29).
T8 construct: LexA DBD-AFB2 and AD-IAA19 fusions in yeast diploids
T8 sequence (Q9LW29 1-575): T6 sequence (Q9LW29 1-575)
T8 sequence (O24409 1-197): T1 sequence (O24409 1-197 P76S) with S76P
The assay is described as follows: yeast two-hybrid, beta-galactosidase reporter. Type of assay: cell-based. To be noted: auxin-dependent association in yeast; low micromolar IAA.

In assay [11] the target is T5, ASK1-TIR1-IAA19 co-receptor complex (TIR1-IAA19). The assay is described as follows: [3H]IAA saturation radioligand binding.
The target is the same in assay [12]. The assay is described as follows: homologous competition radioligand binding. The following applies: unlabelled IAA against 25 nM [3H]IAA.

For orientation: Ki means a dissociation constant, usually derived from enzyme kinetics or from competition with a known ligand. A higher Ki goes with a looser hold on the target. As usually defined, the Kd is the free concentration of one partner at which half of the binding sites on the other are occupied at equilibrium, for simple one-to-one binding. With `O=C(O)Cc1c[nH]c2ccccc12` [IAA], the “specific binding at 200 nM” value was “IAA6^C78R/shy1-1 and IAA19^P76S/msg2-1 mutants that mimic stabilized version of the proteins affect significantly” in [1]; “IAA6^C78R/shy1-1 and IAA19^P76S/msg2-1 mutants that mimic stabilized version of the proteins affect significantly” in [9]. The “yeast two-hybrid, beta-galactosidase reporter” value was “IAA6 and IAA19 interacted in an auxin-dependent manner with TIR1, AFB1 and AFB2” in assay [2]; “IAA6 and IAA19 interacted in an auxin-dependent manner with TIR1, AFB1 and AFB2” in [3]; “IAA6 and IAA19 interacted in an auxin-dependent manner with TIR1, AFB1 and AFB2” in [6]; “IAA6 and IAA19 interacted in an auxin-dependent manner with TIR1, AFB1 and AFB2” in [10]. Further, the IC50 entry was “determined IC50 and Ki values for each of the complexes” in assay [4]; “determined IC50 and Ki values for each of the complexes” in assay [12]. The Ki was 0.0335 ± 0.0037 µM in assay [5] and 0.0993 ± 0.0119 µM in [7]. Further, the Kd in [8] amounted to 0.072 ± 0.0105 µM; in assay [11] it was 0.0156 ± 0.002 µM.
